CC(C)C(N)=O
Conditions | solubility (mole fraction)
in 2-butanone, 273.15 K | 0.0397
in 2-butanone, 279.15 K | 0.045
in 2-butanone, 284.15 K | 0.0497
in 2-butanone, 289.15 K | 0.0548
in 2-butanone, 293.75 K | 0.0597
in 2-butanone, 299.05 K | 0.0657
in 2-butanone, 303.75 K | 0.0713
in 2-butanone, 308.55 K | 0.0773
in 2-butanone, 313.65 K | 0.0841
in 2-butanone, 318.25 K | 0.0904
in 2-butanone, 323.95 K | 0.0988
in THF, 273.15 K | 0.0439
in THF, 279.15 K | 0.0514
in THF, 284.15 K | 0.0585
in THF, 289.15 K | 0.0661
in THF, 293.75 K | 0.0741
in THF, 299.05 K | 0.0837
in THF, 303.75 K | 0.093
in THF, 308.55 K | 0.103
in THF, 313.65 K | 0.115
in THF, 318.25 K | 0.126
in THF, 323.95 K | 0.141
in acetone, 273.15 K | 0.00931
in acetone, 279.15 K | 0.0135
in acetone, 283.95 K | 0.018
in acetone, 289.15 K | 0.0244
in acetone, 293.85 K | 0.0317
in acetone, 299.15 K | 0.0422
in acetone, 303.45 K | 0.0528
in acetone, 309.05 K | 0.0703
in acetone, 313.25 K | 0.0857
in acetone, 319.15 K | 0.114
in acetone, 324.15 K | 0.143
in acetonitrile, 273.15 K | 0.0122
in acetonitrile, 279.15 K | 0.0166
in acetonitrile, 283.95 K | 0.021
in acetonitrile, 289.15 K | 0.0271
in acetonitrile, 293.85 K | 0.0335
in acetonitrile, 299.15 K | 0.0424
in acetonitrile, 303.45 K | 0.051
in acetonitrile, 309.05 K | 0.0645
in acetonitrile, 313.25 K | 0.0766
in acetonitrile, 319.15 K | 0.0961
in acetonitrile, 324.15 K | 0.116
in chloroform, 273.15 K | 0.013
in chloroform, 279.15 K | 0.0176
in chloroform, 284.15 K | 0.0222
in chloroform, 289.15 K | 0.0282
in chloroform, 294.15 K | 0.0352
in chloroform, 299.15 K | 0.0436
in chloroform, 303.75 K | 0.0529
in chloroform, 309.15 K | 0.0656
in chloroform, 313.15 K | 0.0769
in chloroform, 319.15 K | 0.0968
in chloroform, 324.75 K | 0.119
in cyclohexanone, 273.15 K | 0.0267
in cyclohexanone, 279.15 K | 0.0333
in cyclohexanone, 284.15 K | 0.0398
in cyclohexanone, 289.15 K | 0.0473
in cyclohexanone, 293.75 K | 0.0551
in cyclohexanone, 299.05 K | 0.0653
in cyclohexanone, 303.75 K | 0.0756
in cyclohexanone, 308.55 K | 0.0873
in cyclohexanone, 313.65 K | 0.101
in cyclohexanone, 318.25 K | 0.115
in cyclohexanone, 323.95 K | 0.135
in cyclopentanone, 273.15 K | 0.0441
in cyclopentanone, 279.15 K | 0.0544
in cyclopentanone, 284.15 K | 0.0642
in cyclopentanone, 289.15 K | 0.0754
in cyclopentanone, 293.75 K | 0.0871
in cyclopentanone, 299.05 K | 0.102
in cyclopentanone, 303.75 K | 0.117
in cyclopentanone, 308.55 K | 0.134
in cyclopentanone, 313.65 K | 0.154
in cyclopentanone, 318.25 K | 0.174
in cyclopentanone, 323.95 K | 0.201
in ethanol, 273.15 K | 0.0474
in ethanol, 279.15 K | 0.0599
in ethanol, 283.95 K | 0.0715
in ethanol, 289.15 K | 0.086
in ethanol, 293.85 K | 0.102
in ethanol, 299.15 K | 0.121
in ethanol, 303.45 K | 0.139
in ethanol, 309.05 K | 0.166
in ethanol, 313.25 K | 0.189
in ethanol, 319.15 K | 0.226
in ethanol, 324.15 K | 0.26
in ethyl formate, 273.15 K | 0.0121
in ethyl formate, 279.15 K | 0.0153
in ethyl formate, 284.15 K | 0.0186
in ethyl formate, 289.15 K | 0.0223
in ethyl formate, 293.75 K | 0.0263
in ethyl formate, 299.05 K | 0.0316
in ethyl formate, 303.75 K | 0.0371
in ethyl formate, 308.55 K | 0.0432
in ethyl formate, 313.65 K | 0.0508
in ethyl formate, 318.25 K | 0.0583
in ethyl formate, 323.95 K | 0.069
in isobutanol, 273.15 K | 0.0521
in isobutanol, 279.15 K | 0.0633
in isobutanol, 284.15 K | 0.0737
in isobutanol, 289.15 K | 0.0855
in isobutanol, 293.75 K | 0.0976
in isobutanol, 299.05 K | 0.113
in isobutanol, 303.75 K | 0.129
in isobutanol, 308.55 K | 0.146
in isobutanol, 313.65 K | 0.166
in isobutanol, 318.25 K | 0.186
in isobutanol, 323.95 K | 0.213
in isopropanol, 273.15 K | 0.0245
in isopropanol, 279.15 K | 0.0339
in isopropanol, 283.95 K | 0.0433
in isopropanol, 289.15 K | 0.0561
in isopropanol, 293.85 K | 0.0702
in isopropanol, 299.15 K | 0.0901
in isopropanol, 303.45 K | 0.109
in isopropanol, 309.05 K | 0.139
in isopropanol, 313.25 K | 0.166
in isopropanol, 319.15 K | 0.211
in isopropanol, 324.15 K | 0.257
in methanol, 273.15 K | 0.0844
in methanol, 279.15 K | 0.0988
in methanol, 283.95 K | 0.112
in methanol, 289.15 K | 0.127
in methanol, 293.85 K | 0.142
in methanol, 299.15 K | 0.161
in methanol, 303.45 K | 0.177
in methanol, 309.05 K | 0.201
in methanol, 313.25 K | 0.219
in methanol, 319.15 K | 0.247
in methanol, 324.15 K | 0.274
in methyl acetate, 273.15 K | 0.03
in methyl acetate, 279.15 K | 0.0343
in methyl acetate, 284.15 K | 0.0381
in methyl acetate, 289.15 K | 0.0422
in methyl acetate, 293.75 K | 0.0463
in methyl acetate, 299.05 K | 0.0513
in methyl acetate, 303.75 K | 0.056
in methyl acetate, 308.55 K | 0.0611
in methyl acetate, 313.65 K | 0.0668
in methyl acetate, 318.25 K | 0.0722
in methyl acetate, 323.95 K | 0.0794
in n-butanol, 273.15 K | 0.0542
in n-butanol, 279.15 K | 0.0653
in n-butanol, 284.15 K | 0.0756
in n-butanol, 289.15 K | 0.0873
in n-butanol, 293.75 K | 0.0993
in n-butanol, 299.05 K | 0.115
in n-butanol, 303.75 K | 0.13
in n-butanol, 308.55 K | 0.146
in n-butanol, 313.65 K | 0.165
in n-butanol, 318.25 K | 0.184
in n-butanol, 323.95 K | 0.21
in n-propanol, 273.15 K | 0.0352
in n-propanol, 279.15 K | 0.047
in n-propanol, 283.95 K | 0.0585
in n-propanol, 289.15 K | 0.0741
in n-propanol, 293.85 K | 0.0909
in n-propanol, 299.15 K | 0.113
in n-propanol, 303.45 K | 0.135
in n-propanol, 309.05 K | 0.169
in n-propanol, 313.25 K | 0.198
in n-propanol, 319.15 K | 0.245
in n-propanol, 324.15 K | 0.294

Source: BigSolDB 2.1
